In the supplement of paper PMC10307832:

Columns and labels:
Assay in all cases: relative viability (nuclei count vs DMSO), 5 days (fraction); higher = more cells survive
Halofuginone + Olaparib = compound: O=C(C[C@H]1NCCC[C@@H]1O)Cn1cnc2cc(Br)c(Cl)cc2c1=O (racemic) [Halofuginone] + O=C(c1cc(Cc2n[nH]c(=O)c3ccccc23)ccc1F)N1CCN(C(=O)C2CC2)CC1 [Olaparib] (partner 8 µM)
Outline: (§1)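 Lung cancer cell lines, seeded in 1536-well plates, were treated the following day by pin tool with a single drug or with five library-drug doses (not always all listed) in √10 steps on top of a fixed anchor-drug dose. Cells were fixed and nuclei stained in one step after 5 days, and nuclei were counted. Relative viability is the nuclei count for treated wells divided by that for vehicle wells, reported as medians of duplicate plates.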

[1] = compound: O=C(C[C@H]1NCCC[C@@H]1O)Cn1cnc2cc(Br)c(Cl)cc2c1=O (racemic) [Halofuginone] + C[C@]1(O)C[C@@H](c2nc(-c3ccc4ccc(-c5ccccc5)nc4c3)c3c(N)nccn32)C1 [Linsitinib] (partner 1 µM)
Outline: as §1

Cediranib + Pictilisib = compound: COc1cc2c(Oc3ccc4[nH]c(C)cc4c3F)ncnc2cc1OCCCN1CCCC1 [Cediranib] + CS(=O)(=O)N1CCN(Cc2cc3nc(-c4cccc5[nH]ncc45)nc(N4CCOCC4)c3s2)CC1 [Pictilisib] (partner 1 µM)
Outline: as §1

Cediranib + Crizotinib = compound: COc1cc2c(Oc3ccc4[nH]c(C)cc4c3F)ncnc2cc1OCCCN1CCCC1 [Cediranib] + C[C@@H](Oc1cc(-c2cnn(C3CCNCC3)c2)cnc1N)c1c(Cl)ccc(F)c1Cl [Crizotinib] (partner 1 µM)
Outline: as §1

Cell Line | relative viability (Halofuginone + Olaparib; first compound 0.001 µM) | relative viability (Halofuginone + Olaparib; first compound 0.003162 µM) | relative viability (Halofuginone + Olaparib; first compound 0.01 µM) | relative viability (Halofuginone + Olaparib; first compound 0.03162 µM) | relative viability (Halofuginone + Olaparib; first compound 0.1 µM) | relative viability ([1]; first compound 0.001 µM) | relative viability ([1]; first compound 0.003162 µM) | relative viability ([1]; first compound 0.01 µM) | relative viability ([1]; first compound 0.03162 µM) | relative viability ([1]; first compound 0.1 µM) | relative viability (Cediranib + Pictilisib; first compound 0.04 µM) | relative viability (Cediranib + Pictilisib; first compound 0.4 µM) | relative viability (Cediranib + Pictilisib; first compound 1.265 µM) | relative viability (Cediranib + Pictilisib; first compound 4 µM) | relative viability (Cediranib + Crizotinib; first compound 0.04 µM) | relative viability (Cediranib + Crizotinib; first compound 0.4 µM) | relative viability (Cediranib + Crizotinib; first compound 1.265 µM) | relative viability (Cediranib + Crizotinib; first compound 4 µM) | relative viability (Cediranib + Pictilisib; first compound 0.1265 µM) | relative viability (Cediranib + Crizotinib; first compound 0.1265 µM)
LU99A | 0.268 | 0.257 | 0.25 | 0.248 | 0.286 | 0.634 | 0.477 | 0.522 | 0.515 | 0.45 | 0.354 | 0.314 | 0.276 | 0.36 | 0.639 | 0.59 | 0.547 | 0.649 | – | –
NCI-H1395 | 0.462 | 0.469 | 0.471 | 0.433 | 0.388 | 1.17 | 1.62 | 1.2 | 0.961 | 0.776 | 0.58 | 0.593 | 0.557 | 0.591 | – | – | – | – | – | –
ChaGo-K-1 | 0.397 | 0.452 | 0.407 | 0.398 | 0.442 | – | – | – | – | – | 0.805 | 0.7 | 0.852 | 0.639 | 1.08 | 1.08 | 1.14 | 0.874 | – | –
NCI-H522 | 0.621 | 0.665 | 0.631 | 0.672 | 0.628 | – | – | – | – | – | – | – | – | – | – | – | – | – | – | –
NCI-H1793 | 0.988 | 0.852 | 0.814 | 0.902 | 0.294 | 0.985 | 0.962 | 0.822 | 0.883 | 0.398 | 0.404 | 0.345 | – | 0.299 | – | – | – | – | 0.294 | –
SW 900 | 0.805 | 0.851 | – | 0.733 | 0.197 | – | – | – | – | – | – | – | – | – | – | – | – | – | – | –
NCI-H1563 | – | – | – | – | – | 1.3 | 1.3 | 0.963 | 0.636 | 0.603 | 0.727 | 0.711 | 0.66 | 0.595 | 0.919 | 0.854 | 0.833 | 0.894 | 0.576 | 0.866
NCI-H2342 | 0.644 | 0.431 | 0.413 | 0.431 | 0.427 | – | – | – | – | – | – | – | – | – | – | – | – | – | – | –
